US8436012B2, “Imidazopyridin-2-one derivatives” (Daiichi Sankyo Company, Limited, priority 2008, dated 2013)

What was measured:
human mTOR = target: T1, human mTOR (Homo sapiens, UniProt P42345); assay: mTOR Kinase Activity Inhibition Test; type: biochemical; details: His-tagged mTOR (1362C), biotinylated peptide substrate, ATP, 3 hours at room temperature, fluorescence resonance energy transfer 665 nm/620 nm; read-out: IC50 value of mTOR enzyme inhibitory activity
T1 construct: the portion corresponding to 1362-2549aa at the C terminus of human mTOR; made in house
Description: The kinase activity of mTOR was measured in the presence or absence of a test compound. A substrate peptide is phosphorylated by mTOR kinase activity. A complex of streptavidin-XL665 and anti-phosphorylated S6K (Thr389) antibody/anti-mouse IgG-cryptate binds to this phosphorylated peptide. At this moment, fluorescence resonance energy transfer takes place from antibody/anti-mouse IgG-cryptate exposed to light excitation to XL665, which results in emission of fluorescence at 665 nm. The mTOR kinase activity is detected using this principle.
(1) Sample Preparation and Enzymatic Reaction
An HEK293 cell line that constitutively expresses a His tag fused human mTOR has been established. His tag was introduced into the N terminus of the portion corresponding to 1362-2549aa at the C terminus of human mTOR. Cell lysate was prepared from this HEK293 cell line constitutively expressing His-tagged mTOR (1362C), and His-tagged mTOR (1362C) was purified using the His tag affinity according to a conventional method.
Next, an mTOR enzyme solution was prepared, which contains the aforementioned His-tagged mTOR (1362C) enzyme, 8 μg/mL of biotinylated peptide (Biotin-Ahx-[…]-amide (Sigma)), as well as 50 mM HEPES (pH 7.5), 20 mM MnCl2, 1 mg/ml BSA, an appropriate amount of protease inhibitor cocktail (Complete EDTA free, Roche), 100 ng/ml Calyculin A, 4 μg/ml Cantharidin and 10 mM DTT as other components.
The test compound was dissolved in DMSO, and serial dilutions were prepared with 20 μM ATP solution (50 mM HEPES (pH 7.5), 20 μM ATP) to achieve concentrations necessary for the assay. 5 μL of this compound solution was applied to each well of a 384 well small volume white Greiner plate.
5 μL of mTOR enzyme solution was added to the aforementioned well containing the test compound. After mixing, the mixture was incubated at room temperature for 3 hours to carry out the enzymatic reaction.
The same operation was performed with a solution of DMSO in 20 μM ATP solution as a positive control and with a solution of DMSO in 50 mM HEPES (pH 7.5) as a negative control.
(2) Detection of Enzymatic Reaction
After the enzymatic reaction, 5 μl each of an europium solution (a solution of anti-mouse IgG-cryptate (SCETI Medical Labo K.K.) and anti-phosphorylated S6K (Thr389) antibody (Cell Signaling Technology Inc.) in 50 mM HEPES (pH 7.5), 100 mM EDTA and 1.5 mg/ml BSA) and an XL665 solution (a solution of streptavidin-XL665 (SCETI Medical Labo K.K.) in 50 mM HEPES (pH 7.5), 100 mM EDTA, 0.8 M KF and 1.5 mg/ml BSA) were added in this order and then mixed. The mixture was incubated at 4° C. overnight. On the following day, the mixture was returned to room temperature and irradiated with excitation light at 337 nm. Fluorescence at 620 nm and fluorescence at 665 nm were measured with RUBYstar (BMG).
The mTOR inhibitory activity (%) was calculated using the ratio calculated from the measured values as an index of enzyme activity. Here, the ratio was calculated from the following formula (I). Ratio=10000×665 nm fluorescence value/620 nm fluorescence value (1)
The mTOR enzyme inhibitory activity (%) was calculated from the following formula (2). mTOR enzyme inhibitory activity (%)=100×[(P−S)/(P−N)] (2)
P: Ratio in well of positive control
N: Ratio in well of negative control
S: Ratio in well containing test compound
Further, an optimal curve was calculated based upon each concentration of the test compound prepared in serial dilutions and the mTOR enzyme inhibitory activity (%) at that concentration. The concentration at which 50% inhibition occurred was calculated as the IC50 value of mTOR enzyme inhibitory activity.

WM-266-4 cells = assay: Cell Proliferation Inhibitory Test; type: cell-based; details: Homo sapiens, 72 h, cultured three days with test compound, MTT, read-out: 50% cell proliferation inhibitory activity (GI50 value)
Description: WM-266-4 cells (ATCC, USA) were seeded in a 96-well plate and cultured overnight. Then, serial dilutions of the sample containing the test compound were prepared, added to each well and cultured another three days. Thereafter, the cell amount in each well was measured by MTT (MOSMANN, T., Rapid colorimetric assay for cellular growth and survival: application to proliferation and cytotoxicity assays. J. Immunol. Methods, 65, 55-63 (1983)). The 50% cell proliferation inhibitory activity (GI50 value) was calculated from the following formula (3). 100×[(T−T0)/(C−T0)]=50 (3)
Here, T represents values from the test compound added wells, C represents the value from the well to which the test compound was not added for three days, and To represents an initial measured value at the time of addition of the test compound.

T1 sequence (P42345 1362-2549): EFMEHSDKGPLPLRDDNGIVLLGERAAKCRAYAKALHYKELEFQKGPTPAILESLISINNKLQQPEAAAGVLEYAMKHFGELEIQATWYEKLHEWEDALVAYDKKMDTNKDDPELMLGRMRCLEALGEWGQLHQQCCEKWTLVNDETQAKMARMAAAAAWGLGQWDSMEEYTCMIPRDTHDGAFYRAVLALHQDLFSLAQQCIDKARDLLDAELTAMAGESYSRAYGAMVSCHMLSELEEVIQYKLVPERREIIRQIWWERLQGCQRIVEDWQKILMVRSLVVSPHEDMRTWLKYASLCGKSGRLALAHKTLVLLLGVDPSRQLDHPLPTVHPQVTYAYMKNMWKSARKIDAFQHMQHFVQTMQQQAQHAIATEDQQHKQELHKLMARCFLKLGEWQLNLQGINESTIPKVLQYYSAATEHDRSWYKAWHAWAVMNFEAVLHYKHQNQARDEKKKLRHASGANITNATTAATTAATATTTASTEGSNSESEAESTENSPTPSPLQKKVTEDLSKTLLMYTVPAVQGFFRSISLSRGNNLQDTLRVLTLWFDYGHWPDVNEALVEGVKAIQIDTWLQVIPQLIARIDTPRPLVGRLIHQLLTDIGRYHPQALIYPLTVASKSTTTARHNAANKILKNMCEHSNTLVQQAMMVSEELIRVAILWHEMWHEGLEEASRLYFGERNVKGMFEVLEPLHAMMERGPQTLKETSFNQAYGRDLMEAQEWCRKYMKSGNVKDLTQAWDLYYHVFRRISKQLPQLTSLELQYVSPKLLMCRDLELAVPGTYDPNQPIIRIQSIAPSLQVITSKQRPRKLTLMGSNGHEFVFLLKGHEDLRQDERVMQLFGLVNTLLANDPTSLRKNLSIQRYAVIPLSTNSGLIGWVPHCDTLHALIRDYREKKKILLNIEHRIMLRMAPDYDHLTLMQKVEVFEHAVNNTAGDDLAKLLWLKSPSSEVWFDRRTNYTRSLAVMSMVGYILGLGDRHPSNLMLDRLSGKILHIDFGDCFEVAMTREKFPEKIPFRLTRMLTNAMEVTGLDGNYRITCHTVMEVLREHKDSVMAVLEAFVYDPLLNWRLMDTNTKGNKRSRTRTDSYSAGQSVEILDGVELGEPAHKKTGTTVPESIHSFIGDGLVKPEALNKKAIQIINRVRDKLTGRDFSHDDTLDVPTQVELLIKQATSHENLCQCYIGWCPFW

IC50 (human mTOR) [nM] | Structure (SMILES) | GI50 (WM-266-4 cells) [nM]
< 50 | Cc1nc2[nH]c(=O)n(CC3CCOCC3)c2cc1-c1ccc2[nH]ccc2c1 [Example 7, 6-(1H-Indol-5-yl)-5-methyl-1-(tetrahydro-2H-pyran-4-ylmethyl)-1,3-dihydro-2H-imidazo[4,5-b]pyridin-2-one] | < 3000
< 50 | CO[C@@H]1CC[C@H](Cn2c(=O)[nH]c3ncc(-c4cnc5[nH]ccc5c4C)cc32)OC1 (racemic) [Example 142, 2,6-Anhydro-1,3,4-trideoxy-5-O-methyl-1-[6-(4-methyl-1H-pyrrolo[2,3-b]pyridin-5-yl)-2-oxo-2,3-dihydro-1H-imidazo[4,5-b]pyridin-1-yl]-DL-threo-hexitol] | < 3000
100 to 5000 | O=c1[nH]c2ncc(-c3ccnc4ccccc34)cc2n1CC1CCOCC1 [Example 12, 6-Quinolin-4-yl-1-(tetrahydro-2H-pyran-4-ylmethyl)-1,3-dihydro-2H-imidazo[4,5-b]pyridin-2-one] | 
< 50 | Cc1c(-c2cnc3[nH]c(=O)n(C[C@H]4COCCO4)c3c2)cnc2[nH]ccc12 [Example 42, 1-[(2S)-1,4-Dioxan-2-ylmethyl]-6-(4-methyl-1H-pyrrolo[2,3-b]pyridin-5-yl)-1,3-dihydro-imidazo[4,5-b]pyridin-2-one] | < 3000
100 to 5000 | O=c1[nH]c2ncc(-c3cncc4ccccc34)cc2n1CC1CCOCC1 [Example 11, 6-Isoquinolin-4-yl-1-(tetrahydro-2H-pyran-4-ylmethyl)-1,3-dihydro-2H-imidazo[4,5-b]pyridin-2-one] | 
< 50 | O=c1[nH]c2ncc(-c3cnc4[nH]ccc4c3)cc2n1C[C@@H]1COCCO1 [Example 39, 1-[(2R)-1,4-Dioxan-2-ylmethyl]-6-(1H-pyrrolo[2,3-b]pyridin-5-yl)-1,3-dihydro-2H-imidazo[4,5-b]pyridin-2-one] | < 3000
< 50 | O=c1[nH]c2ncc(-c3cnc4[nH]ccc4c3Cl)cc2n1C[C@H]1COCCO1 [Example 117, 6-(4-Chloro-1H-pyrrolo[2,3-b]pyridin-5-yl)-1-[(2S)-1,4-dioxan-2-ylmethyl]-1,3-dihydro-2H-imidazo[4,5-b]pyridin-2-one] | < 3000
100 to 5000 | O=c1[nH]c2ncc(-c3cccc4ncccc34)cc2n1CC1CCOCC1 [Example 13, 6-Quinolin-5-yl-1-(tetrahydro-2H-pyran-4-ylmethyl)-1,3-dihydro-2H-imidazo[4,5-b]pyridin-2-one] | 
100 to 5000 | O=C1Cc2cc(-c3cnc4[nH]c(=O)n(CC5CCOCC5)c4c3)cnc2N1 [Example 30, 6-(2-Oxo-2,3-dihydro-1H-pyrrolo[2,3-b]pyridin-5-yl)-1-(tetrahydro-2H-pyran-4-ylmethyl)-1,3-dihydro-2H-imidazo[4,5-b]pyridin-2-one] | 
100 to 5000 | O=C(O)c1cc2cc(-c3cnc4[nH]c(=O)n(CC5CCOCC5)c4c3)ccc2[nH]1 [Example 80, 5-[2-Oxo-1-(tetrahydro-2H-pyran-4-ylmethyl)-2,3-dihydro-1H-imidazo[4,5-b]pyridin-6-yl]-1H-indole-2-carboxylic acid] | 
< 50 | O=c1[nH]c2ncc(-c3cnc4[nH]cnc4c3)cc2n1CC1CCOCC1 [Example 22, 1-(Tetrahydro-2H-pyran-4-ylmethyl)-1,3-dihydro-2H,3′H-6,6′-biimidazo[4,5-b]pyridin-2-one] | 

More lines, now with the values behind:

Structure (SMILES) | IC50 (human mTOR) [nM] | GI50 (WM-266-4 cells) [nM]
O=c1[nH]c2ncc(-c3cnc4[nH]ccc4c3)cc2n1C[C@H]1CC[C@H](O)CO1 (racemic) [Example 111, 2,6-Anhydro-1,3,4-trideoxy-1-[2-oxo-6-(1H-pyrrolo[2,3-b]pyridin-5-yl)-2,3-dihydro-1H-imidazo[4,5-b]pyridin-1-yl]-DL-erythro-hexitol] | < 50 | < 3000
O=c1[nH]c2ncc(-c3cnc4[nH]ccc4c3)cc2n1C[C@H]1COC[C@@H](O)C1 (racemic) [Example 65, 1-{[cis-5-Hydroxytetrahydro-2H-pyran-3-yl]methyl}-6-(1H-pyrrolo[2,3-b]pyridin-5-yl)-1,3-dihydro-2H-imidazo[4,5-b]pyridin-2-one] | < 50 | < 3000
Cc1c(-c2cnc3[nH]c(=O)n(C[C@H]4COCCO4)c3c2)cnc2[nH]cc(F)c12 [Example 126, 1-[(2S)-1,4-Dioxan-2-ylmethyl]-6-(3-fluoro-4-methyl-1H-pyrrolo[2,3-b]pyridin-5-yl)-1,3-dihydro-2H-imidazo[4,5-b]pyridin-2-one] | < 50 | < 3000
CC(C1CCOCC1)n1c(=O)[nH]c2ncc(-c3cnc4[nH]ccc4c3)cc21 (stereo not shown) [Example 24, 6-(1H-Pyrrolo[2,3-b]pyridin-5-yl)-1-[1-(tetrahydro-2H-pyran-4-yl)ethyl]-1,3-dihydro-2H-imidazo[4,5-b]pyridin-2-one] | < 50 | < 3000
Cc1c(-c2cnc3[nH]c(=O)n(C[C@H]4CC[C@@H](O)CO4)c3c2)cnc2[nH]ccc12 [Example 143, 2,6-Anhydro-1,3,4-trideoxy-1-[6-(4-methyl-1H-pyrrolo[2,3-b]pyridin-5-yl)-2-oxo-2,3-dihydro-1H-imidazo[4,5-b]pyridin-1-yl]-L-threo-hexitol] | < 50 | < 3000
O=C1CCOCC1Cn1c(=O)[nH]c2ncc(-c3cnc4[nH]ccc4c3)cc21 (stereo not shown) [Example 106, 1-[(4-Oxotetrahydro-2H-pyran-3-yl)methyl]-6-(1H-pyrrolo[2,3-b]pyridin-5-yl)-1,3-dihydro-2H-imidazo[4,5-b]pyridin-2-one] | < 50 | 
Cc1c(-c2cnc3[nH]c(=O)n(C[C@H]4COCCO4)c3c2)cc(F)c2[nH]ccc12 [Example 128, 1-[(2S)-1,4-Dioxan-2-ylmethyl]-6-(7-fluoro-4-methyl-1H-indol-5-yl)-1,3-dihydro-2H-imidazo[4,5-b]pyridin-2-one] | < 50 | < 3000
O=c1[nH]c2ncc(-c3cnc4[nH]ccc4c3)cc2n1CC1=CCCOC1 [Example 31, 1-(5,6-Dihydro-2H-pyran-3-ylmethyl)-6-(1H-pyrrolo[2,3-b]pyridin-5-yl)-1,3-dihydro-2H-imidazo[4,5-b]pyridin-2-one] | < 50 | < 3000
O=c1[nH]c2ncc(-c3cnc4[nH]ccc4c3C(F)(F)F)cc2n1C[C@H]1COCCO1 [Example 122, 1-[(2S)-1,4-Dioxan-2-ylmethyl]-6-(4-(trifluoromethyl)-1H-pyrrolo[2,3-b]pyridin-5-yl)-1,3-dihydro-2H-imidazo[4,5-b]pyridin-2-one] | < 50 | < 3000
O=c1[nH]c2ncc(-c3cnc4[nH]ccc4c3)cc2n1C[C@H]1COC[C@H](O)C1 (racemic) [Example 66, 1-{[trans-5-Hydroxytetrahydro-2H-pyran-3-yl]methyl}-6-(1H-pyrrolo[2,3-b]pyridin-5-yl)-1,3-dihydro-2H-imidazo[4,5-b]pyridin-2-one] | < 50 | 
